# Columns and labels:
# [1] = tested on: Monographella nivalis (Microdochium nivale); test: Monographella nivalis (Microdochium nivale) / liquid culture (foot rot cereals); type: cell-based; conditions: growth inhibition photometrically 4 to 5 days after application, read-out: control of Monographella nivalis
# Experimental: (§1) Example B5: Monographella nivalis (Microdochium nivale)/Liquid Culture (Foot Rot Cereals) Conidia of the fungus from cryogenic storage are directly mixed into nutrient broth (PDB potato dextrose broth). After placing a (DMSO) solution of test compound into a microtiter plate (96-well format), the nutrient broth containing the fungal spores is added. The test plates are incubated at 24° C. and the inhibition of growth is determined photometrically 4 to 5 days after application.
# [2] = tested on: Mycosphaerella arachidis (Cercospora arachidicola); test: Mycosphaerella arachidis (Cercospora arachidicola) / liquid culture (early leaf spot); type: cell-based; conditions: growth inhibition photometrically 4 to 5 days after application, read-out: control of Mycosphaerella arachidis
# Experimental: as §1, with “B6: Mycosphaerella arachidis (Cercospora arachidicola)/Liquid” for “B5: Monographella nivalis (Microdochium nivale)/Liquid”, “(Early Leaf Spot)” for “(Foot Rot Cereals)”
# Pyrenophora teres = Pyrenophora teres / barley / leaf disc preventative (net blotch); type: in vivo; conditions: 200 ppm, compared to untreated control
# Experimental: Example B9: Pyrenophora teres/Barley/Leaf Disc Preventative (Net Blotch) Barley leaf segments cv. Hasso are placed on agar in a multiwell plate (24-well format) and sprayed with the formulated test compound diluted in water. The leaf segments are inoculated with a spore suspension of the fungus 2 days after application. The inoculated leaf segments are incubated at 20° C. and 65% rh under a light regime of 12 h light/12 h darkness in a climate cabinet and the activity of a compound is assessed as disease control compared to untreated when an appropriate level of disease damage appears in untreated check leaf segments (5 to 7 days after application).
# [3] = tested on: Mycosphaerella graminicola (Septoria tritici); test: Mycosphaerella graminicola (Septoria tritici) / liquid culture (Septoria blotch); type: cell-based; conditions: Zymoseptoria tritici, growth inhibition photometrically 4 to 5 days after application, read-out: control of Mycosphaerella graminicola
# Experimental: as §1, with “B12: Mycosphaerella graminicola (Septoria tritici)/Liquid” for “B5: Monographella nivalis (Microdochium nivale)/Liquid”, “(Septoria Blotch)” for “(Foot Rot Cereals)”
# [4] = tested on: Phaeosphaeria nodorum (Septoria nodorum); test: Phaeosphaeria nodorum (Septoria nodorum) / wheat / leaf disc preventative (glume blotch); type: in vivo; conditions: 200 ppm, compared to untreated control
# Experimental: Example B4: Phaeosphaeria Nodorum (Septoria nodorum)/Wheat/Leaf Disc Preventative (Glume Blotch) Wheat leaf segments cv. Kanzler are placed on agar in a multiwell plate (24-well format) and sprayed with the formulated test compound diluted in water. The leaf disks are inoculated with a spore suspension of the fungus 2 days after application. The inoculated test leaf disks are incubated at 20° C. and 75% rh under a light regime of 12 h light/12 h darkness in a climate cabinet and the activity of a compound is assessed as percent disease control compared to untreated when an appropriate level of disease damage appears in untreated check leaf disks (5 to 7 days after application).
# [5] = tested on: Puccinia recondita f. sp. tritici; test: Puccinia recondita f. sp. tritici / wheat / leaf disc curative (brown rust); type: in vivo; conditions: 200 ppm, applied 1 day after inoculation
# Experimental: Example B7: Puccinia recondita f. Sp. Tritici/Wheat/Leaf Disc Curative (Brown Rust) Wheat leaf segments cv. Kanzler are placed on agar in multiwell plates (24-well format). The leaf segments are inoculated with a spore suspension of the fungus. Plates are stored in darkness at 19° C. and 75% rh. The formulated test compound diluted in water is applied 1 day after inoculation. The leaf segments are incubated at 19° C. and 75% rh under a light regime of 12 h light/12 h darkness in a climate cabinet and the activity of a compound is assessed as percent disease control compared to untreated when an appropriate level of disease damage appears in untreated check leaf segments (6 to 8 days after application).
# Pythium ultimum = Pythium ultimum / liquid culture (seedling damping off); type: cell-based; conditions: 20 ppm, growth inhibition photometrically 2 to 3 days after application
# Experimental: Example B10: Pythium ultimum/Liquid Culture (Seedling Damping Off) Mycelia fragments and oospores of a newly grown liquid culture of the fungus are directly mixed into nutrient broth (PDB potato dextrose broth). After placing a (DMSO) solution of test compound into a microtiter plate (96-well format), the nutrient broth containing the fungal mycelia/spore mixture is added. The test plates are incubated at 24° C. and the inhibition of growth is determined photometrically 2 to 3 days after application.
# [6] = tested on: Thanatephorus cucumeris (Rhizoctonia solani); test: Thanatephorus cucumeris (Rhizoctonia solani) / liquid culture (foot rot, damping-off); type: cell-based; conditions: 20 ppm, growth inhibition photometrically 3 to 4 days after application
# Experimental: Example B11: Thanatephorus cucumeris (Rhizoctonia solani)/Liquid Culture (Foot Rot, Damping-Off) Mycelia fragments of a newly grown liquid culture of the fungus are directly mixed into nutrient broth (PDB potato dextrose broth). After placing a (DMSO) solution of the test compounds into a microtiter plate (96-well format), the nutrient broth containing the fungal material is added. The test plates are incubated at 24° C. and the inhibition of growth is determined photometrically 3 to 4 days after application.
structure (smiles),measurement,setting,value
"O=C(c1cc(-c2ccc(F)cc2F)on1)N1Cc2c(F)cccc2C(c2cccnc2)C1 (centres unmarked) [Compound P-1, [5-(2,4-difluorophenyl)isoxazol-3-yl]-[8-fluoro-4-(3-pyridyl)-3,4-dihydro-1H-isoquinolin-2-yl]methanone]",inhibition of growth at 20 ppm,[1],≥ 80%
same,inhibition of growth at 20 ppm,[2],≥ 80%
same,control of Pyrenophora teres,Pyrenophora teres,at least 80%
same,inhibition of growth at 20 ppm,[3],≥ 80%
"Cn1nc(C2CN(C(=O)c3cc(-c4ccc(F)cc4F)on3)Cc3ccccc32)cc1Cl (centres unmarked) [Compound P-7, [4-(5-chloro-1-methyl-pyrazol-3-yl)-3,4-dihydro-1H-isoquinolin-2-yl]-[5-(2,4-difluorophenyl)isoxazol-3-yl]methanone]",control of Phaeosphaeria nodorum,[4],at least 80%
same,inhibition of growth at 20 ppm,[1],≥ 80%
same,inhibition of growth at 20 ppm,[2],≥ 80%
same,inhibition of growth at 20 ppm,[3],≥ 80%
"O=C(c1cc(-c2ccc(F)cc2F)on1)N1Cc2ccccc2C(c2cncnc2)C1 (centres unmarked) [Compound P-4, [5-(2,4-difluorophenyl)isoxazol-3-yl]-(4-pyrimidin-5-yl-3,4-dihydro-1H-isoquinolin-2-yl)methanone]",inhibition of growth at 20 ppm,[1],≥ 80%
same,inhibition of growth at 20 ppm,[2],≥ 80%
same,inhibition of growth at 20 ppm,[3],≥ 80%
"Cc1c(C2CN(C(=O)c3cc(-c4ccc(F)cc4F)no3)Cc3ccccc32)cc(C#N)n1C (centres unmarked) [Compound P-19, 4-[2-[3-(2,4-difluorophenyl)isoxazole-5-carbonyl]-3,4-dihydro-1H-isoquinolin-4-yl]-1,5-dimethyl-pyrrole-2-carbonitrile]",control of Puccinia recondita f sp. tritici,[5],at least 80%
same,inhibition of growth at 20 ppm,[3],≥ 80%
"O=C(c1cc(-c2ccccc2)on1)N1Cc2ccccc2C(c2cccnc2)C1 (centres unmarked) [Compound P-6, (5-phenylisoxazol-3-yl)-[4-(3-pyridyl)-3,4-dihydro-1H-isoquinolin-2-yl]methanone]",inhibition of growth at 20 ppm,[1],≥ 80%
same,inhibition of growth at 20 ppm,[2],≥ 80%
same,inhibition of growth at 20 ppm,[3],≥ 80%
"Cc1ccc(C2CN(C(=O)c3cc(-c4ccc(F)cc4F)on3)Cc3ccccc32)cn1 (centres unmarked) [Compound P-3, [5-(2,4-difluorophenyl)isoxazol-3-yl]-[4-(6-methyl-3-pyridyl)-3,4-dihydro-1H-isoquinolin-2-yl]methanone]",inhibition of growth at 20 ppm,[1],≥ 80%
same,inhibition of growth at 20 ppm,[2],≥ 80%
same,inhibition of growth at 20 ppm,[3],≥ 80%
"O=C(c1cc(-c2ccc(F)cc2F)on1)N1Cc2ccccc2C(c2ccncc2)C1 (centres unmarked) [Compound P-2, [5-(2,4-difluorophenyl)isoxazol-3-yl]-4-[4-(4-pyridyl)-3,4-dihydro-1H-isoquinolin-2-yl]methanone]",inhibition of growth at 20 ppm,[1],≥ 80%
same,control of Pythium ultimum,Pythium ultimum,at least 80%
same,control of Thanatephorus cucumeris,[6],at least 80%
same,inhibition of growth at 20 ppm,[3],≥ 80%
"O=C(c1cc(-c2ccc(F)cc2F)on1)N1Cc2ccccc2C(c2cnccn2)C1 (centres unmarked) [Compound P-8, [5-(2,4-difluorophenyl)isoxazol-3-yl]-(4-pyrazin-2-yl-3,4-dihydro-1H-isoquinolin-2-yl]methanone]",inhibition of growth at 20 ppm,[1],≥ 80%
same,inhibition of growth at 20 ppm,[2],≥ 80%
same,inhibition of growth at 20 ppm,[3],≥ 80%
